Experimental data from publication PMC6152329, “Antitumoural Sulphur and Selenium Heteroaryl Compounds: Thermal Characterization and Stability Evaluation” (Molecules : A Journal of Synthetic Chemistry and Natural …, 2017).

Legend:
[1] = Stability after stress conditions by HPLC/UV-DAD; type: physicochemical; details: 0, 4 and 24 h; for Stability to oxidation: H2O2 3%; for Stability to acid hydrolysis: HCl 1 M; for Stability to basic (alkaline) hydrolysis: NaOH 0.1 M
Protocol: The stability of compounds VA4J (without polymorphic behaviour) and VA6E and VA7J (with polymorphic behaviour) was investigated after the application of diverse stress conditions: acid hydrolysis (HCl 1 M), basic hydrolysis (NaOH 0.1 M) and oxidation (H2O2 3%). Chromatographic studies using HPLC/UV-DAD were performed with this purpose.
Chromatographic studies were performed using an HPLC/UV-DAD (HP 1200, Agilent Technologies. Santa Clara, CA, USA) with a C18 column (Gemini-NX 150 × 4.6 mm, 5 µm) from Phenomenex (Phenomenex. Torrance, CA, USA). The mobile phase was a mixture of acetonitrile/water (80:20; v/v) for compound VA4J, (50:50; v/v) for VA6E and (80:20, 0.1% formic acid; v/v) for compound VA7J. The injection volume was 50 µL and the flow rate was 1 mL/min. Chromatography was performed at 35 °C. UV-DAD detection was established at λ = 254 nm.
For stability evaluation in stress conditions, working solutions of 47.6 µg/mL were prepared by diluting 20 µL of each standard solution in 200 µL of acetonitrile and 200 µL of (a) 1 M HCl, (b) 0.1 M NaOH and (c) 3% H2O2. Data were recorded at zero time and after 4 and 24 h of exposure.

[2] = test system: breast adenocarcinoma (MCF-7) cell line; experiment: MTT cell viability assay, 72 h, MCF-7; type: cell-based, human; details: for SI (selectivity index): GI50(184B5)/GI50(MCF-7); for TGI / LD50 / GI50: MCF-7, 72 h, MTT; for TGI: concentration that completely inhibits cell growth; for LD50: concentration that kills 50% of cells; for GI50: concentration that inhibits 50% cell growth
Protocol: (§1) The novel synthetic compounds VA2J, VA4J, VA6G, VA6H, VA6I and VA6J were tested in breast adenocarcinoma (MCF-7) and non-malignant mammary-gland-derived (184B5) cell lines to be able to establish their potency and selectivity. The reference drug used was methylseleninic acid (MSA) as a Se-containing structure with promising in vitro and in vivo results against different tumour types. Results are expressed as the concentration that inhibits 50% cell growth (GI50), the concentration that inhibits completely cell growth (TGI) and the concentration that kills 50% of cells (LD50). The selectivity index (SI) is calculated as GI50(184B5)/GI50(MCF-7).
(§2) Cell lines were purchased from the American Type Culture Collection (ATCC, Barcelona, Spain). MCF7 cell lines were grown in Roswell Park Memorial Institute (RPMI) medium (Gibco, Madrid, Spain) supplemented with 10% fetal bovine serum (FBS; Gibco), 100 units/mL penicillin and […] (Gibco, Madrid, Spain). 184B5 cells were grown in DMEM/F12 medium supplemented with 5% FBS, 1x ITS (Lonza, Barcelona, Spain), 100 nM hydrocortisone (Sigma Aldrich, Madrid, Spain), 2 mM sodium pyruvate (Lonza), 20 ng/mL EGF (Sigma Aldrich, Madrid, Spain), 0.3 nM trans-retinoic acid (Sigma-Aldrich) 100 units/mL penicillin and […]. Cells were maintained at 37 °C and 5% CO2.
(§3) Compounds were dissolved in DMSO at a concentration of 0.01 M. Serial dilutions were prepared with non-supplemented medium. The cytotoxic effect of each compound was tested at eight different concentrations ranging between 0.01 and 100 µM.
(§4) A total of 10^4 cells/well in 96 well-plates were treated with either DMSO or increasing concentrations of the corresponding compound for 72 h and cell viability was determined using the MTT (3-(4,5-dimethylthiazol-2-yl)-2,5-diphenyltetrazolium bromide) (Sigma Aldrich, Madrid, Spain) assay. Briefly, cells were incubated with 50 µL of MTT (2 mg/mL stock) for 4 h. The medium was then removed by aspiration and the formazan crystals were dissolved in 150 µL of DMSO. The absorbance was measured at 550 nm in a microplate reader (Sunrise, Tecan, Männedorf, Switzerland). […] Data were obtained from at least three independent experiments performed in quadruplicate.

[3] = Thermogravimetric (TG) analysis of thermal stability; type: physicochemical; details: for TG To (Tonset of thermal degradation): nitrogen, 50 to 350 °C; for TG decomposition or desolvation processes in the temperature range studied: range 100–135 °C for VA4J, 94–108 °C for VA6E
Protocol: The thermogravimetric (TG) studies were carried out with a Perkin–Elmer TGA-7 (Perkin Elmer, Inc. Watham, MA, USA) which was calibrated with alumel and nickel at 10 °C·min^−1. The calibration of the oven temperatures was carried out automatically and mass calibrated with a certified sample of 10 mg (ASTM E617, provided by Perkin Elmer, Inc. Watham, MA, USA). TG analyses were performed under a nitrogen atmosphere with a gas flow of 40 mL·min^−1, from 50 to 350 °C, at a heating rate of 10 °C·min^−1, using a sample of approximately 3 mg, in order to obtain the values of the Tonset and Tmax of the degradation process as well as any associated mass loss.

[4] = test system: non-malignant mammary-gland-derived (184B5) cell line; experiment: MTT cell viability assay, 72 h, 184B5; type: cell-based; details: 184B5, 72 h; for GI50: Homo sapiens
Protocol: as §1, §2, §3, §4

[5] = DSC successive melting-recrystallization cycles, polymorphic behaviour; type: physicochemical; set-up: key: I: Compounds that show a polymorphic phase transition into an amorphous or mainly amorphous solid form after a first melting–cooling scan; II: Compounds that change into a new polymorphic form with a different Tonset of fusion than the one observed at the first melting–recrystallization scan after cooling; III: These compounds show a fusion process without modifications in the thermal behaviour after an initial fusion–recrystallization cycle; IV: Compounds that show recrystallization or other types of phase transition of the original form into another crystalline one in the first heat scan; V: Compounds without fusion processes at the range of temperatures studied; *: fusion with decomposition; details: 10 °C/min
Protocol: To establish general polymorphic behaviours, samples of all the compounds synthetized (Figure 1) were exposed to successive cycles of melting–recrystallization using DSC. Calorimetric analyses were performed before the beginning of the degradation process (Table 6). […] This behaviour was shown by several compounds: VA1C, VA2E, VA8E, series H, VA6I, VA8J, VA6M and VA8M. DSC and PXRD results of compound VA7H are shown as supplementary material (Figures S1 and S2 and Table S1). • Behaviour II—Compounds that change into a new polymorphic form with a different Tonset of fusion than the one observed at the first melting–recrystallization scan after cooling. These compounds are VA7E and VA8O. DSC and PXRD results of compound VA7E are shown as supplementary material (Figures S3 and S4, Table S2). • Behaviour III—These compounds show a fusion process without modifications in the thermal behaviour after an initial fusion–recrystallization cycle. Consequently, there is no evidence of polymorphic behaviour. The compounds VA2C, VA2M, VA4J and VA5O belong to this group. DSC and PXRD results of compound VA2M are shown as supplementary material (Figures S5 and S6, Table S3). • Behaviour IV—Compounds that show recrystallization or other types of phase transition of the original form into another crystalline one in the first heat scan. In the successive cycles of melting–recrystallization, the new form may not alter its crystalline form or transit to another polymorphic form. Compounds VA6E, VA7J and VA7M show this behaviour. • Behaviour V—Compounds without fusion processes at the range of temperatures studied.
For calorimetric studies a Perkin–Elmer DSC diamond calibrated with indium and zinc (provided by Perkin–Elmer (Perkin Elmer, Inc. Watham, MA, USA) and fabricated according to guideline ISO35) at 10 °C·min^−1 and nitrogen flow of 20 mL·min^−1 was employed. The gas connected to the equipment was nitrogen with a purity of 99.999%. Calorimetric analyses were carried out in aluminium capsules for volatilities of 10 μL, at a heating rate of 10 °C·min^−1, using a sample of approximately 3 mg, in order to establish the Tonset, Tmax and the enthalpy of fusion ∆Hf.
The calorimetric analyses started with the study of the thermal behaviour of the compounds before the process of degradation in order to evidence the possible existence of polymorphism. For this preliminary study, samples of all the compounds were exposed to successive cycles of heating–cooling. All samples were heated from 50 °C to temperatures 15–20 °C below Tonset of the degradation process, in order to ensure that compounds were not degraded (Table 6). After melting the samples, they were left at room temperature for enough time to allow the compounds to recrystallize before the successive thermal process. Additional cycles of heating–cooling were performed if polymorphism was detected.

[6] = test system: breast adenocarcinoma (MCF-7) cell line; set-up: method as in PMID 27487570; details: same methodology; cited from earlier work
[7] = test system: 1205Lu (melanoma), A549 (lung), DU145 (prostate), HCT116 (colon), PANC-1 (pancreas) and BxPC3 (pancreas); set-up: method as in PMID 26922233; details: all six cell lines, even at short time points; MTT conditions slightly different; cited from earlier work

For `CSc1nc2ccccc2nc1SC` [VA4J, 2,3-Bis(methylsulfanyl)quinoxaline], the Stability to oxidation [1] was “stable”, the “Stability to acid hydrolysis” value [1] was “stable” and the “Stability to basic (alkaline) hydrolysis” value [1] was “stable”. For the same compound, the “SI (selectivity index)” value [2] was 51.25, the TGI [2] was over 100 µM and the LD50 [2] was over 100 µM. For the same compound, the “SI relative to MSA” value ([2]; SI of compound compared with SI of MSA) was “over 50 times”, the “TG To (Tonset of thermal degradation)” value ([3]; 10 °C/min) was 197.42 °C and the “TG decomposition or desolvation processes in the temperature range studied” value [3] was “can be excluded”. For the same compound, the LD50 [4] was over 100 µM, the TGI [4] was over 100 µM and the GI50 [4] was 52.5 µM. The “DSC Behaviour (polymorphic/calorimetric behaviour)” value [5] was “III”.
For `N#CSCc1cc2c(cc1Br)OCO2` [VA6E], the Stability to oxidation [1] was “degradation product peaks were also detected”, the “Stability to acid hydrolysis” value [1] was “degradation product peaks were also detected” and the “Stability to basic (alkaline) hydrolysis” value [1] was “degraded almost completely”. The “TG To (Tonset of thermal degradation)” value ([3]; 10 °C/min) was 184.1 °C, the “TG decomposition or desolvation processes in the temperature range studied” value [3] was “can be excluded” and the “DSC Behaviour (polymorphic/calorimetric behaviour)” value [5] was “IV”. For the same compound, the “Selectivity relative to MSA” value [6] was “fourteen times more selective than MSA”.
For `N#CSCc1ccc2ccccc2n1` [VA6H, Quinolin-2-ylmethyl Thiocyanate], the “SI (selectivity index)” value [2] was 3.25, the GI50 ([2]; Homo sapiens, MCF7, 72 h) was under 10 µM and the TGI [2] was 14.83 µM. For the same compound, the GI50 [2] was 8.53 µM, the LD50 [2] was 24.18 µM and the “TG To (Tonset of thermal degradation)” value ([3]; 10 °C/min) was 139.1 °C. For the same compound, the LD50 [4] was over 100 µM, the TGI [4] was 75.84 µM and the GI50 [4] was 27.8 µM. For the same compound, the “DSC Behaviour (polymorphic/calorimetric behaviour)” value [5] was “I”.
With `COc1cc2oc(=O)cc(CSC#N)c2cc1OC` [VA6I, (6,7-Dimethoxy-2-oxo-2H-chromen-4-yl)methyl Thiocyanate] the “SI (selectivity index)” value [2] was 0.50, the TGI [2] was over 100 µM and the LD50 [2] was over 100 µM. For the same compound, the “TG To (Tonset of thermal degradation)” value ([3]; 10 °C/min) was 246.9 °C, the LD50 [4] was over 100 µM and the TGI [4] was over 100 µM. For the same compound, the GI50 [4] was 2.26 µM and the “DSC Behaviour (polymorphic/calorimetric behaviour)” value [5] was “I”.
For `N#CSCc1nc2ccccc2nc1CSC#N` [VA6J, Quinoxalin-2,3-diyldimethanediyl Bisthiocyanate], the “SI (selectivity index)” value [2] was 2.15, the GI50 ([2]; Homo sapiens, MCF7, 72 h) was 18.5 µM and the TGI [2] was 50.55 µM. The LD50 [2] was 83.93 µM, the “TG To (Tonset of thermal degradation)” value ([3]; 10 °C/min) was 165.0 °C and the LD50 [4] was 94.62 µM. For the same compound, the TGI [4] was 69.80 µM, the GI50 [4] was 39.8 µM and the “DSC Behaviour (polymorphic/calorimetric behaviour)” value [5] was “*”.
For `N=C(N)[Se]Cc1nc2ccccc2nc1C[Se]C(=N)N` [VA7J], the Stability to oxidation [1] was “totally degraded”, the “Stability to acid hydrolysis” value [1] was “stable” and the “Stability to basic (alkaline) hydrolysis” value [1] was “only a minor degradation”. The IC50 [7] was under 10 µM, the “TG debromhidration process temperature” value ([3]; 10 °C/min) was 173 °C and the “DSC Behaviour (polymorphic/calorimetric behaviour)” value [5] was “IV”.
